We go through 16 compounds from patent publication US20020169111A1, “Reversal of multidrug resistance in human colon carcinoma cells” (American Cyanamid Comany, priority 1998, published 2002).

The data set concerns S1-M1-3.2 cells. The following applies: for Toxicity (>20%): compound alone, concentration that causes greater than 20% cell death of S1-M1-3.2 cells; for IC50: read-out: IC50 (μM), resensitizing S1-M1-3.2 cells to mitoxantrone, with 3.2 μM mitoxantrone, 50% cancer cell death; for Per Cent Survival Alone: 3 days; for Difference Score: survival alone minus survival with 3.2 μM mitoxantrone. The protocol: One of the first reported molecules with reversing activity was verapamil, a calcium channel blocker. […] Cells were plated into 96-well dishes (100 μl/well) in growth medium supplemented with 5% FBS. […] Reversal agents were tested from 0.1-80 μM (triplicate points per dose). In parallel wells, cells were grown in the presence of the reversal agent alone.
The Difference Score is the difference in the percentage of cells surviving when the drug was given alone minus the percentage of cells surviving when the drug was given along with the antitumor agent.
Cell survival was estimated using the Sulforhodamine (SRB) assay.

Where [1] appears, read: S1-M1-3.2 cells, drug 0.1 μM alone.
Where [2] appears, read: S1-M1-3.2 cells, drug 0.5 μM alone.
Where [3] appears, read: S1-M1-3.2 cells, drug 1 μM alone.
[4] abbreviates: S1-M1-3.2 cells, drug 5 μM alone.
[5] abbreviates: S1-M1-3.2 cells, drug 10 μM alone.
The mark [6] stands for this setting: S1-M1-3.2 cells, drug 20 μM alone.
Where [7] appears, read: S1-M1-3.2 cells, drug 40 μM alone.
Setting [8] is: S1-M1-3.2 cells, drug 80 μM alone.

As a reminder, the IC50 is the concentration that inhibits the measured activity by half.

Like-named read-outs stand apart in the source and are kept apart here.

As for `NCCC[C@@H]1c2[nH]c3ccccc3c2C[C@H]2C(=O)N3CCC[C@H]3C(=O)N12` [Example 29a, (5aS,12R,14aS)-12-(3-aminopropyl)-1,2,3,5a,6,11,12,14a-octahydro-5H,14H-pyrrolo[1″,2″:4′,5′]pyrazino[2′,1′:6,1]pyrido[3,4-b]indole-5,14-dione], the “Toxicity (>20%)” value was more than 80 µM and the IC50 worked out at 20 µM.
For `CC(C)=C[C@H]1c2[nH]c3ccccc3c2C[C@H]2C(=O)N3CCC[C@H]3C(=O)N21` [Example 27], in that order: more than 80 µM and 2.5 µM.
The like results for `CC(C)C[C@H]1c2[nH]c3ccccc3c2C[C@H]2C(=O)N3CCC[C@@H]3C(=O)N21` [Example 16b, (5aS,12S,14aR)-12-isobutyl-1,2,3,5a,6,11,12,14a-octahydro-5H,14H-pyrrolo[1″,2″:4′,5′]pyrazino[2′,1′:6,1]pyrido[3,4-b]indole-5,14-dione] were, in that order, more than 80.0 µM and 5.5 µM.
The like results for `CC(C)C[C@@H]1c2[nH]c3ccccc3c2C[C@H]2C(=O)N3CCC[C@@H]3C(=O)N12` [Example 16a, (5aS,12R,14aR)-12-isobutyl-1,2,3,5a,6,11,12,14a-octahydro-5H,14H-pyrrolo[1″,2″:4′,5′]pyrazino[2′,1′:6,1]pyrido[3,4-b]indole-5,14-dione] were, in that order, more than 80.0 µM and more than 80 µM.
On to `COc1ccc2c3c(n(CC=C(C)C)c2c1)[C@H](C=C(C)C)N1C(=O)[C@@H]2CCCN2C(=O)[C@]1(O)[C@H]3O` [Fumitremorgin B], for which the “Toxicity (>20%)” value is 15.0 µM and the IC50 came to 5 µM. Under “S1-M1-3.2 cells”, the “concentration giving 40% cell death (compound alone)” value turned out to be 20 µM. The “activity in the reversal assay compared to FTC, fold lower” value (S1-M1-3.2 cells, Table 7 versus Table 8) was 14 fold. For the setting “S1-M1-3.2 cells, drug 0.1 μM”, the “Per Cent Survival with 3.2 μM mitoxantrone” value is 91 ± 5 Per Cent and the “Difference Score” value amounted to 3. Besides, the “Per Cent Survival Alone” value under setting [1] is on record as 94 ± 1 Per Cent. Moreover, where the note is “S1-M1-3.2 cells, drug 0.5 μM”, the “Per Cent Survival with 3.2 μM mitoxantrone” value turned out to be 90 ± 3 Per Cent and the “Difference Score” value amounted to 5. Also, the “Per Cent Survival Alone” value under setting [2] was 95 ± 2 Per Cent. For the setting “S1-M1-3.2 cells, drug 1 μM”, the “Per Cent Survival with 3.2 μM mitoxantrone” value was found to be 87 ± 1 Per Cent and the “Difference Score” value is listed as 6. Moreover, the “Per Cent Survival Alone” value under setting [3] turned out to be 93 ± 0 Per Cent. Moreover, where the note is “S1-M1-3.2 cells, drug 5 μM”, the “Per Cent Survival with 3.2 μM mitoxantrone” value is 51 ± 4 Per Cent and the “Difference Score” value turned out to be 39. The “Per Cent Survival Alone” value under setting [4] amounted to 90 ± 2 Per Cent. In addition, for the setting “S1-M1-3.2 cells, drug 10 μM”, the “Per Cent Survival with 3.2 μM mitoxantrone” value is recorded as 35 ± 1 Per Cent and the “Difference Score” value came out at 56. Besides, the “Per Cent Survival Alone” value under setting [5] was 91 ± 4 Per Cent. For the setting “S1-M1-3.2 cells, drug 20 μM”, the “Per Cent Survival with 3.2 μM mitoxantrone” value was 29 ± 1 Per Cent and the “Difference Score” value was determined as 30. The “Per Cent Survival Alone” value under setting [6] came out at 59 ± 10 Per Cent. For the same compound, for the setting “S1-M1-3.2 cells, drug 40 μM”, the “Per Cent Survival with 3.2 μM mitoxantrone” value is 20 ± 2 Per Cent and the “Difference Score” value was 21. Besides, the “Per Cent Survival Alone” value under setting [7] is listed as 41 ± 7 Per Cent. For the same compound, under “S1-M1-3.2 cells, drug 80 μM”, the “Per Cent Survival with 3.2 μM mitoxantrone” value was 10 ± 1 Per Cent and the “Difference Score” value was 6. Moreover, the “Per Cent Survival Alone” value under setting [8] is reported as 16 ± 2 Per Cent.
Consider `CC(C)CC1c2[nH]c3ccccc3c2CC2C(=O)N3CCCCC3C(=O)N21` [Example 21a, (6aR,13R,15aR)-13-isobutyl-1,2,3,4,6a,7,12,13,15a-nonahydro-6H,15H-pyrido[1″,2″:4′,5′]pyrazino[2′,1′:6,1]pyrido[3,4-b]indole-6H,15H-dione], for which the “Toxicity (>20%)” value was determined as 10.0 µM and the IC50 worked out at 10.5 µM.
The like results for `O=C(NCCC[C@H]1c2[nH]c3ccccc3c2C[C@H]2C(=O)N3CCC[C@H]3C(=O)N21)OCc1ccccc1` [Example 24b, Benzyl 3-[(5aS,12S,14aS)-5,14-dioxo-2,3,5a,6,11,12,14,14a-octahydro-1H,5H-pyrrolo[1″,2″:4′,5′]pyrazino[2′,1′:6,1]pyrido[3,4-b]indol-12-yl]propylcarbamate] were, in that order, 20 µM and 2 µM.
The like results for `CC(C)CC1c2[nH]c3ccccc3c2CC2C(=O)N3CCCCC3C(=O)N21` [Example 19a, (6aR,13R,15aS)-13-isobutyl-1,2,3,4,6a,7,12,13,15a-nonahydro-6H,15H-pyrido[1″,2″:4′,5′]pyrazino[2′,1′:6,1]pyrido[3,4-b]indole-6H,15H-dione] were, in that order, 50.0 µM and 11 µM.
The like results for `COc1ccc2c3c(n(CC=C(C)C)c2c1)[C@H](C=C(C)C)N1C(=O)[C@@H]2CCCN2C(=O)[C@@H]1C3` [Example 34] were, in that order, 2.0 µM and 1 µM.
Turning to `CC(C)C[C@H]1c2[nH]c3ccccc3c2C[C@H]2C(=O)N3CCC[C@H]3C(=O)N21` [Example 14b, (5aS,12S,14aS)-12-isobutyl-1,2,3,5a,6,11,12,14a-octahydro-5H,14H-pyrrolo[1″,2″:4′,5′]pyrazino[2′,1′:6,1]pyrido[3,4-b]indole-5,14-dione], the “Toxicity (>20%)” value came to 35.0 µM and the IC50 stood at 1 µM.
As for `CC(C)C[C@H]1c2[nH]c3ccccc3c2C[C@@H]2C(=O)N3CCC[C@@H]3C(=O)N21` [Example 17b, (5aR,12S,14aR)-12-isobutyl-1,2,3,5a,6,11,12,14a-octahydro-5H,14H-pyrrolo[1″,2″:4′,5′]pyrazino[2′,1′:6,1]pyrido[3,4-b]indole-5,14-dione], the “Toxicity (>20%)” value is more than 80.0 µM and the IC50 turned out to be 3.5 µM.
For `O=C1[C@@H]2Cc3c([nH]c4ccccc34)[C@H](CCCCCc3ccccc3)N2C(=O)[C@@H]2CCCN12` [Example 23b, (5aS,12S,14aS)-12-(5-phenylpentyl)-1,2,3,5a,6,11,12,14a-octahydro-5H,14H-pyrrolo[1″,2″:4′,5′]pyrazino[2′,1′:6,1]pyrido[3,4-b]indole-5,14-dione], in that order: more than 80 µM and 3 µM.
Regarding `COc1ccc(CCN(C)CCCC(C#N)(c2ccc(OC)c(OC)c2)C(C)C)cc1OC` (stereo not shown) [Verapamil, reference compound], the “reversal activity in S1-M1-3.2 cells (in words)” value was “not reversed”. Besides, where the note is “S1-M1-3.2 cells, drug 0.1 μM”, the “Per Cent Survival with 3.2 μM mitoxantrone” value is 98 ± 0 Per Cent. Moreover, the “Per Cent Survival Alone” value under setting [1] came out at 100 ± 1 Per Cent. The “Per Cent Survival with 3.2 μM mitoxantrone” value (S1-M1-3.2 cells, drug 0.5 μM) came out at 98 ± 1 Per Cent. Further, under setting [2], the “Per Cent Survival Alone” value is listed as 99 ± 1 Per Cent. Under “S1-M1-3.2 cells, drug 1 μM”, the “Per Cent Survival with 3.2 μM mitoxantrone” value was found to be 98 ± 1 Per Cent. In addition, the “Per Cent Survival Alone” value under setting [3] amounted to 97 ± 2 Per Cent. The “Per Cent Survival with 3.2 μM mitoxantrone” value (S1-M1-3.2 cells, drug 5 μM) was found to be 97 ± 0 Per Cent. Besides, the “Per Cent Survival Alone” value under setting [4] came out at 98 ± 5 Per Cent. The “Per Cent Survival with 3.2 μM mitoxantrone” value (S1-M1-3.2 cells, drug 10 μM) came to 94 ± 0 Per Cent. Further, the “Per Cent Survival Alone” value under setting [5] amounted to 103 ± 4 Per Cent. Besides, where the note is “S1-M1-3.2 cells, drug 20 μM”, the “Per Cent Survival with 3.2 μM mitoxantrone” value amounted to 93 ± 2 Per Cent. Also, the “Per Cent Survival Alone” value under setting [6] amounted to 99 ± 4 Per Cent. Further, the “Per Cent Survival with 3.2 μM mitoxantrone” value (S1-M1-3.2 cells, drug 40 μM) is 83 ± 3 Per Cent. Further, under setting [7], the “Per Cent Survival Alone” value was determined as 93 ± 6 Per Cent. The “Per Cent Survival with 3.2 μM mitoxantrone” value (S1-M1-3.2 cells, drug 80 μM) worked out at 58 ± 4 Per Cent. Also, the “Per Cent Survival Alone” value under setting [8] was 80 ± 24 Per Cent.
As for `CC(C)C[C@H]1c2[nH]c3ccccc3c2C[C@@H]2C(=O)N3CCC[C@H]3C(=O)N21` [Example 15b, (5aR,12S,14aS)-12-isobutyl-1,2,3,5a,6,11,12,14a-octahydro-5H,14H-pyrrolo[1″,2″:4′,5′]pyrazino[2′,1′:6,1]pyrido[3,4-b]indole-5,14-dione], the “Toxicity (>20%)” value was more than 80.0 µM and the IC50 came to 15 µM.
Consider `CC(C)CC1c2[nH]c3ccccc3c2CC2C(=O)N3CCCCC3C(=O)N21` [Example 18a, (6aS,13R,15aS)-13-isobutyl-1,2,3,4,6a,7,12,13,15a-nonahydro-6H,15H-pyrido[1″,2″:4′,5′]pyrazino[2′,1′:6,1]pyrido[3,4-b]indole-6H,15H-dione], for which the “Toxicity (>20%)” value came out at 15.0 µM and the IC50 turned out to be 50 µM.
For `NCCC[C@H]1c2[nH]c3ccccc3c2C[C@H]2C(=O)N3CCC[C@H]3C(=O)N21` [Example 29b, (5aS,12S,14aS)-12-(3-aminopropyl)-1,2,3,5a,6,11,12,14a-octahydro-5H,14H-pyrrolo[1″,2″:4′,5′]pyrazino[2′,1′:6,1]pyrido[3,4-b]indole-5,14-dione], in that order: more than 80 µM and more than 80 µM.
